Source: ChEMBL document CHEMBL4602655, “Synthesis and biological evaluation of Isosteviol derivatives as FXa inhibitors” (Bioorg Med Chem Lett, 2020)

Key:
Coagulation factor X [1] = target: T1, Coagulation factor X (Homo sapiens, UniProt P00742); experiment: Inhibition of factor 10a (unknown origin)
Plasma = experiment: Anticoagulant activity in plasma assessed as concentration required to double the activated partial thromboplastin time; type: ADME, cell-free
Coagulation factor X [2] = target: T1, Coagulation factor X; experiment: Binding affinity to factor 10a (unknown origin) assessed as dissociation rate constant by SPR assay
Coagulation factor X [3] = target: T1, Coagulation factor X; experiment: Binding affinity to factor 10a (unknown origin) by SPR assay
Coagulation factor X [4] = target: T1, Coagulation factor X; experiment: Binding affinity to factor 10a (unknown origin) assessed as association rate constant by SPR assay

T1 sequence (P00742 41-179 limits assumed): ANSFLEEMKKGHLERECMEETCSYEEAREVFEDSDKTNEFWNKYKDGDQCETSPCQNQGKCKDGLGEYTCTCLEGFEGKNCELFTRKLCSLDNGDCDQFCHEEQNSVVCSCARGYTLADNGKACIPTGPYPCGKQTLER
T1 sequence (P00742 235-488 limits assumed): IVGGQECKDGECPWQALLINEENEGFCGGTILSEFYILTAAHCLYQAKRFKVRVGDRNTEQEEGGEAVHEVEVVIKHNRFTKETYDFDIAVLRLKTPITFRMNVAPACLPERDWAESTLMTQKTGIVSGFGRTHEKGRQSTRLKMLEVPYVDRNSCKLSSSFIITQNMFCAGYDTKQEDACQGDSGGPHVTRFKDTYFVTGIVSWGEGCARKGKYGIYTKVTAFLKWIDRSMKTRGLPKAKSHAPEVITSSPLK

Compound | IC50 (Coagulation factor X [1]) [µM] | other results
CCOC(=O)[C@]1(C)CCC[C@@]2(C)[C@@H]3CC[C@@]4(C)C[C@]3(CC[C@@H]21)C[C@H]4OCc1cn(-c2ccc(C(C)C)cc2)nn1 | 20.3 | –
CCOC(=O)[C@]1(C)CCC[C@@]2(C)[C@@H]3CC[C@@]4(C)C[C@]3(CC[C@@H]21)C[C@H]4OCc1cn(-c2ccc(Cl)cc2)nn1 | 27.3 | –
CCOC(=O)[C@]1(C)CCC[C@@]2(C)[C@@H]3CC[C@@]4(C)C[C@]3(CC[C@@H]21)C/C4=N\NC(=S)Nc1cccc(OC)c1 | 18.4 | –
CCOC(=O)[C@]1(C)CCC[C@@]2(C)[C@@H]3CC[C@@]4(C)C[C@]3(CC[C@@H]21)C[C@H]4OCc1cn(-c2ccccc2)nn1 | 10.4 | –
C#CCO[C@@H]1C[C@]23CC[C@H]4[C@@](C)(CCC[C@@]4(C)C(=O)OCC)[C@@H]2CC[C@@]1(C)C3 | 32.4 | –
CCOC(=O)[C@]1(C)CCC[C@@]2(C)[C@@H]3CC[C@@]4(C)C[C@]3(CC[C@@H]21)C[C@H]4OCc1cn(-c2ccccc2C)nn1 | 34.5 | –
CCOC(=O)[C@]1(C)CCC[C@@]2(C)[C@@H]3CC[C@@]4(C)C[C@]3(CC[C@@H]21)C/C4=N\NC(=S)Nc1ccc(F)cc1 | 27.5 | –
CCOC(=O)[C@]1(C)CCC[C@@]2(C)[C@@H]3CC[C@@]4(C)C[C@]3(CC[C@@H]21)C/C4=N\NC(=S)Nc1ccc(C#N)cc1 | 13.6 | –
CCOC(=O)[C@]1(C)CCC[C@@]2(C)[C@@H]3CC[C@@]4(C)C[C@]3(CC[C@@H]21)C/C4=N\NC(=S)Nc1ccccc1 | 13.4 | –
CCOC(=O)[C@]1(C)CCC[C@@]2(C)[C@@H]3CC[C@@]4(C)C[C@]3(CC[C@@H]21)C/C4=N\NC(=S)Nc1ccc(C(C)(C)C)cc1 | 9.03 | –
CCOC(=O)[C@]1(C)CCC[C@@]2(C)[C@@H]3CC[C@@]4(C)C[C@]3(CC[C@@H]21)C/C4=N\NC(=S)Nc1cccc(N(C)C)c1 | 29.6 | –
CCOC(=O)[C@]1(C)CCC[C@@]2(C)[C@@H]3CC[C@@]4(C)C[C@]3(CC[C@@H]21)C/C4=N\NC(=S)Nc1ccc(OC)cc1OC | 33.6 | –
CCOC(=O)[C@]1(C)CCC[C@@]2(C)[C@@H]3CC[C@@]4(C)C[C@]3(CC[C@@H]21)C[C@H]4OCc1cn(-c2cccc(Cl)c2)nn1 | 17.7 | –
CCOC(=O)[C@]1(C)CCC[C@@]2(C)[C@@H]3CC[C@@]4(C)C[C@]3(CC[C@@H]21)C/C4=N\NC(=S)Nc1ccc(C)cc1 | 57.7 | –
CCOC(=O)[C@]1(C)CCC[C@@]2(C)[C@@H]3CC[C@@]4(C)C[C@]3(CC[C@@H]21)C[C@H]4OCc1cn(Cc2ccccc2)nn1 | 29.4 | –
CCOC(=O)[C@]1(C)CCC[C@@]2(C)[C@@H]3CC[C@@]4(C)C[C@]3(CC[C@@H]21)C[C@H]4OCc1cn(-c2ccc(OC)cc2)nn1 | 19.3 | –
CCOC(=O)[C@]1(C)CCC[C@@]2(C)[C@@H]3CC[C@@]4(C)C[C@]3(CC[C@@H]21)C[C@H]4OCc1cn(-c2cccc(C)c2)nn1 | 41.7 | –
CCOC(=O)[C@]1(C)CCC[C@@]2(C)[C@@H]3CC[C@@]4(C)C[C@]3(CC[C@@H]21)C[C@H]4O | 12.7 | –
CCOC(=O)[C@]1(C)CCC[C@@]2(C)[C@@H]3CC[C@@]4(C)C[C@]3(CC[C@@H]21)C/C4=N\NC(=S)Nc1ccc(Br)cc1 | 8.77 | –
CCOC(=O)[C@]1(C)CCC[C@@]2(C)[C@@H]3CC[C@@]4(C)C[C@]3(CC[C@@H]21)C/C4=N\NC(=S)Nc1ccc(C(C)C)cc1 | 54.9 | –

Further lines, with some results ahead:

IC50 (Coagulation factor X [1]) [µM] | Compound | other results
0.786 | CCOC(=O)[C@]1(C)CCC[C@@]2(C)[C@@H]3CC[C@@]4(C)C[C@]3(CC[C@@H]21)CC4=O | –
0.153 | CCOC(=O)[C@]1(C)CCC[C@@]2(C)[C@@H]3CC[C@@]4(C)C[C@]3(CC[C@@H]21)C/C4=N\NC(=S)Nc1ccc(Cl)cc1 | 2aPTT (Plasma): 9.31 µM; Kd (Coagulation factor X [2]): 1.45 ×10⁻¹ /s; Kd (Coagulation factor X [3]): 7.52 µM; Ka (Coagulation factor X [4]): 1.93 ×10⁴ /M/s
4.87 | CCOC(=O)[C@]1(C)CCC[C@@]2(C)[C@@H]3CC[C@@]4(C)C[C@]3(CC[C@@H]21)C[C@H]4OCc1cn(-c2cccc3ccccc23)nn1 | –
8.66 | CCOC(=O)[C@]1(C)CCC[C@@]2(C)[C@@H]3CC[C@@]4(C)C[C@]3(CC[C@@H]21)C/C4=N\NC(=S)Nc1ccc(C(F)(F)F)cc1 | –
3.76 | CCOC(=O)[C@]1(C)CCC[C@@]2(C)[C@@H]3CC[C@@]4(C)C[C@]3(CC[C@@H]21)C/C4=N\NC(=S)Nc1cccc(C)c1 | –
0.642 | C[C@@]12CC[C@@H]3[C@@](CC[C@H]4[C@@]3(C)CCC[C@@]4(C)C(=O)O)(CC1=O)C2 [ISOSTEVIOL] | –
0.196 | CCOC(=O)[C@]1(C)CCC[C@@]2(C)[C@@H]3CC[C@@]4(C)C[C@]3(CC[C@@H]21)C/C4=N\NC(=S)Nc1cccc(Cl)c1 | 2aPTT (Plasma): 17.12 µM; Kd (Coagulation factor X [2]): 1.56 ×10⁻¹ /s; Kd (Coagulation factor X [3]): 8.44 µM; Ka (Coagulation factor X [4]): 1.84 ×10⁴ /M/s
5.53 | CCOC(=O)[C@]1(C)CCC[C@@]2(C)[C@@H]3CC[C@@]4(C)C[C@]3(CC[C@@H]21)C[C@H]4OCc1cn(-c2ccc(C)cc2)nn1 | –
0.955 | CCOC(=O)[C@]1(C)CCC[C@@]2(C)[C@@H]3CC[C@@]4(C)C[C@]3(CC[C@@H]21)C/C4=N\NC(=S)Nc1cccc2ccccc12 | –
7.57 | CCOC(=O)[C@]1(C)CCC[C@@]2(C)[C@@H]3CC[C@@]4(C)C[C@]3(CC[C@@H]21)C[C@H]4OCc1cn(-c2ccc3c(c2)OCO3)nn1 | –
2.82 | CCOC(=O)[C@]1(C)CCC[C@@]2(C)[C@@H]3CC[C@@]4(C)C[C@]3(CC[C@@H]21)C/C4=N\N | –
0.209 | CCOC(=O)[C@]1(C)CCC[C@@]2(C)[C@@H]3CC[C@@]4(C)C[C@]3(CC[C@@H]21)C/C4=N\NC(=S)Nc1ccccc1Cl | Kd (Coagulation factor X [2]): 1.87 ×10⁻¹ /s; Kd (Coagulation factor X [3]): 9.98 µM; Ka (Coagulation factor X [4]): 1.88 ×10⁴ /M/s
7.73 | CCOC(=O)[C@]1(C)CCC[C@@]2(C)[C@@H]3CC[C@@]4(C)C[C@]3(CC[C@@H]21)C/C4=N\NC(=S)Nc1cccc(Cl)c1Cl | –
6.33 | CCOC(=O)[C@]1(C)CCC[C@@]2(C)[C@@H]3CC[C@@]4(C)C[C@]3(CC[C@@H]21)C[C@H]4OCc1cn(-c2cc(C)cc(C)c2)nn1 | –
6.65 | CCOC(=O)[C@]1(C)CCC[C@@]2(C)[C@@H]3CC[C@@]4(C)C[C@]3(CC[C@@H]21)C/C4=N\NC(=S)Nc1ccc(OC)cc1 | –
4.15 | CCOC(=O)[C@]1(C)CCC[C@@]2(C)[C@@H]3CC[C@@]4(C)C[C@]3(CC[C@@H]21)C/C4=N\NC(=S)Nc1ccccc1C | –
8.74 | CCOC(=O)[C@]1(C)CCC[C@@]2(C)[C@@H]3CC[C@@]4(C)C[C@]3(CC[C@@H]21)C[C@H]4OCc1cn(-c2ccc(F)cc2)nn1 | –
3.34 | CCOC(=O)[C@]1(C)CCC[C@@]2(C)[C@@H]3CC[C@@]4(C)C[C@]3(CC[C@@H]21)C[C@H]4OCc1cn(-c2ccc(Br)cc2)nn1 | –
8.46 | CCOC(=O)[C@]1(C)CCC[C@@]2(C)[C@@H]3CC[C@@]4(C)C[C@]3(CC[C@@H]21)C/C4=N\NC(=S)Nc1ccc([N+](=O)[O-])cc1 | –
